The record followed here is ChEMBL document CHEMBL5136996, “Semisynthesis and Non-Small-Cell Lung Cancer Cytotoxicity Evaluation of Germacrane-Type Sesquiterpene Lactones from Elephantopus scaber” (J Nat Prod, 2022).

Calls of active or inactive are those of the source. The rule behind the calls is not given here.

The subject of data set [1] is A549. Description: Induction of intracellular ROS generation in human A549 cells incubated for 48 hrs by H2DCF-DA staining based flow cytometry. The data set is classed as functional, cell-based. To be noted: dose 3-10 µM, DDE = dose-dependent effect.
Data set [2] has as its system A549. Description: Cytotoxicity against human A549 cells assessed as reduction in cell viability incubated for 48 hrs by MTT assay. Type of data set: functional, cell-based. To be noted: A549, 48 h.
Data set [3] deals with A549. Description: Induction of apoptosis in human A549 cells assessed as early apoptotic cells at 3 uM incubated for 48 hrs by AnnexinV-FITC/PI staining based flow cytometry (reference value: 2.07 to 3.24%). Type of data set: functional.
Data set [4] relates to A549. Description: Induction of cell cycle arrest in human A549 cells assessed as accumulation of cells at G2/M phase incubated for 48 hrs by PI staining based flow cytometry (reference value: 9.7 to 17.2%). The data set is classed as functional. (In general: In flow cytometry, cells or beads pass a laser one at a time.)
Data set [5] in a line: Cytotoxicity against rat Primary hepatocytes assessed as cell viability at 25 uM incubated for 12 hrs. Type of data set: toxicity, cell-based, Hepatocyte. Particulars: read-out: Activity.
The subject of data set [6] is A549. Briefly: Induction of apoptosis in human A549 cells assessed as early apoptotic cells at 10 uM incubated for 48 hrs by AnnexinV-FITC/PI staining based flow cytometry (reference value: 2.07 to 3.24%). Type of data set: functional.
The test system of data set [7] is A549. Description: Induction of apoptosis in human A549 cells assessed as necrotic cells at 3 uM incubated for 48 hrs by AnnexinV-FITC/PI staining based flow cytometry (reference value: 2.23 to 4.25%). The data set is classed as functional.
Data set [8] relates to A549. Description: Induction of apoptosis in human A549 cells assessed as increase in cleaved caspase-3 expression level at 3 to 10 uM incubated for 48 hrs by western blot analysis. Type of data set: functional, cell-based. To be noted: dose 3-10 µM. In general terms: Immunoblotting shows a protein as a band on a membrane.
The test system of the next data set is NCI-H460. Description: Cytotoxicity against human NCI-H460 cells assessed as reduction in cell viability incubated for 48 hrs by MTT assay. The data set is classed as functional, cell-based. To be noted: NCI-H460, 48 h. A general note: Formazan colour is commonly taken as a measure of viable cells.
Data set [9] concerns A549. Briefly: Induction of apoptosis in human A549 cells assessed as decrease in mitochondrial membrane potential by measuring reduction in ratio of red to green fluorescence intensity at 3 to 10 uM incubated for 48 hrs by JC-1 staining based flow cytometry. The data set is classed as functional, cell-based. To be noted: dose 3-10 µM.
The test system of data set [10] is A549. Description: Induction of apoptosis in human A549 cells assessed as increase in cleaved caspase-9 expression level at 3 to 10 uM incubated for 48 hrs by western blot analysis. Type of data set: functional, cell-based. Particulars: dose 3-10 µM.
For data set [11], the system named is A549. Description: Induction of apoptosis in human A549 cells assessed as late apoptotic cells at 3 uM incubated for 48 hrs by AnnexinV-FITC/PI staining based flow cytometry (reference value: 1.58 to 2.23%). The data set is classed as functional.
Data set [12] has as its system A549. Description: Induction of apoptosis in human A549 cells assessed as viable cells at 10 uM incubated for 48 hrs by AnnexinV-FITC/PI staining based flow cytometry (reference value: 91.5 to 92.9%). Type of data set: functional. To be noted: read-out: Activity.
Data set [13] deals with A549. Description: Induction of apoptosis in human A549 cells assessed as necrotic cells at 10 uM incubated for 48 hrs by AnnexinV-FITC/PI staining based flow cytometry (reference value: 2.23 to 4.25%). Type of data set: functional.
Data set [14] relates to A549. Briefly: Induction of apoptosis in human A549 cells assessed as viable cells at 3 uM incubated for 48 hrs by AnnexinV-FITC/PI staining based flow cytometry (reference value: 91.5 to 92.9%). Type of data set: functional. To be noted: read-out: Activity.
In data set [15] the test system is A549. Briefly: Induction of apoptosis in human A549 cells assessed as late apoptotic cells at 10 uM incubated for 48 hrs by AnnexinV-FITC/PI staining based flow cytometry (reference value: 1.58 to 2.23%). Type of data set: functional.

Regarding `C=C1C(=O)O[C@H]2CC3=C[C@H](C/C(C)=C/[C@@H](OC(=O)CCCCCCC(=O)O[C@@H]4/C=C(\C)C[C@H]5C=C(C[C@@H]6OC(=O)C(=C)[C@H]64)C(=O)O5)[C@H]12)OC3=O`, the Activity entry in the data set on A549 [1] is “Dde”; in the data set on A549 [3] it was 35.5%; in the data set on A549 [4], 62.4%; in the data set on A549 [6] it was 30.9%; in the data set on A549 [7] it was 0.14%; in the data set on A549 [11], 0.7%. The results for the Activity in the data set with A549 [13] and in the data set with A549 [15] were 10.4% and 44.1%, respectively. In addition, the IC50 – broadly, the concentration that inhibits the measured activity by half – in the data set with A549 [2] was determined as 700 nM; in the data set on NCI-H460, 3200 nM. Moreover, the viability at 12 h, 25 µM in [5] was 59.2%. Also, the outcome with A549 [8], with A549 [9] and in the data set on A549 [10] was Active. In the data set with A549 [12], the viability at 10 µM stood at 14.6%. Further, the viability at 3 µM with A549 [14] came out at 63.7%.
